Measured values reported in US20140322761A1, “METHOD OF PREPARING SAMPLE FOR NUCLEIC ACID AMPLIFICATION REACTION, NUCLEIC ACID AMPLIFICATION METHOD, AND REAGENT AND MICROCHIP FOR SOLID PHASE NUCLEIC ACID AMPLIFICATION REACTION” (Sony Corporation, priority 2013, published 2014).

Legend:
[1] = biological target: T1, RNase A (Bos taurus, UniProt P61823); assay: RNase A activity, RNase Alert QC test Kit (Example 3); type: biochemical; conditions: RNase A 0.003 U/mL, 37° C., 60 minutes, compared to Comparative Example 2 without SDS
T1 sequence (P61823 27-150): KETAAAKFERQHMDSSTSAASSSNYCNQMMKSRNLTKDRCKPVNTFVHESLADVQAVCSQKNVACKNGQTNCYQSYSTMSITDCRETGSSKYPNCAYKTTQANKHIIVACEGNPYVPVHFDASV
Experimental: RNase Alert QC test Kit (Ambion) was used for measuring the activity of the RNase A. The RNase A was added to the solution containing RNaseAlert substrate with a final concentration of 0.003 U/mL. The SDS was added to the RNase A solution with a final concentration of 0.1% or 1.0% each to be set as Test Example 1 and Test Example 2. […] Test Examples 1 and 2 and Comparative Examples 1 and 2 were kept warm for 60 minutes at a temperature of 37° C. A fluorescent material (FAM) is bonded with a quencher in the RNaseAlert substrate. The fluorescent material emits when the fluorescent material is separated from the quencher using the RNase A. Excitation light and luminescence of the fluorescence was measured to be 490 nm and 520 nm respectively, using Chromo4 (Bio-rad).

[2] = system: RNase A contained in plasma; assay: Activity of RNase A contained in diluted bovine plasma, RNase Alert QC test Kit (Example 4); type: biochemical; conditions: 37° C., 60 minutes
Experimental: In Example 4, bovine plasma was used as an organism derived sample. The bovine plasma was used after being diluted 10 times or 20 times in advance. Similarly to Example 3, RNase Alert QC test Kit (Ambion) was used for measuring the activity of the RNase A. RNaseAlert substrate and SDS were added to the 10 times diluted bovine plasma such that final concentrations of the SDS become 0.05%, 0.1%, 0.2%, 0.3%, 0.4%, and 0.5% respectively to be set as Test Examples 1 to 6. In addition, RNaseAlert substrate and SDS were added to the 20 times diluted bovine plasma such that final concentrations of the SDS become 0.05%, 0.1%, 0.2%, 0.3%, 0.4%, and 0.5% respectively to be set as Test Examples 7 to 12. In addition, 10 times diluted bovine plasma to which SDS is not added was set as Comparative Example 1 and 20 times diluted bovine plasma to which SDS is not added was set as Comparative Example 2. Test Examples 1 to 12 and Comparative Examples 1 and 2 were kept warm for 60 minutes at a temperature of 37° C. and the activity of the RNase A was measured during the time period using the same method as in Example 3.

[3] = system: Bifidobacterium bifidum; assay: Nucleic acid extraction from bacteria by heat treatment with SDS, followed by LAMP (Example 5); conditions: HPβCD 5% (w/v), LAMP 63° C.
Experimental: In Example 5, Bifidobacterium bifidum from which it is comparatively difficult to extract the nucleic acid was used as bacteria. The Bifidobacterium bifidum (NBRC number: 100015) was obtained from Biological Resource Center (NBRC) of National In statute of Technology and Evaluation (NITE). In addition, the nucleic acid amplification reaction of a genome of Bifidobacterium bifidum was performed using the LAMP method and an LAMP reaction reagent (Eiken Chemical Co., Ltd, Loopamp® DNA Amplification reagent Kit) was used as a sample for the nucleic acid amplification reaction.
A quenching probe shown in Table 3 was used for detecting an amplification nucleic acid chain. In Example 5, excitation light and luminescence of light derived from a fluorescent material FAM bonded with the quenching probe was measured to be 490 nm and 520 nm respectively, using Chromo4 (Bio-rad).
A cell suspension in which the Bifidobacterium bifidum is prepared to be 100 copies/ml. In Example 5, as Test Examples 3 to 5, SDS was added to the cell suspension at the time of heat treatment such that concentrations of SDS become 0.01%, 0.1%, and 1%, respectively (refer to Table 4). In addition, as Test Examples 1 and 2 and Comparative Example 1, cell suspensions to which SDS was not added was prepared (refer to Table 4). The heat treatment was performed for 3 minutes at a temperature of 90° C. for Test Examples 1 and 3 to 5 before starting the nucleic acid amplification reaction. In addition, sonication was performed for Test Example 2 before starting the nucleic acid amplification reaction. After the heating process or the sonication, a LAMP reaction reagent and a primer and quenching probe of Table 3 were added to Test Examples 1 to 5. Furthermore, hydroxyprophyl-β-cyclodextrin (Tokyo Chemical Industry Co., Ltd.) was added to Test Examples 1 to 5 such that a final concentration of the hydroxyprophyl-β-cyclodextrin becomes 5% (w/v). A sample for nucleic acid amplification reaction, a primer, a quenching probe, and HPβCD were added to Comparative Example 1 as well. […]

[4] = system: nucleic acid amplification reaction (genome of Bifidobacterium bifidum as template); assay: LAMP reaction with SDS and HPβCD, bacterial genome as template (Example 6); type: biochemical
Experimental: In Example 6, nucleic acid amplification reaction was performed using the LAMP method using a genome of Bifidobacterium bifidum as a template nucleic acid. In addition, a sample for nucleic acid amplification reaction, a primer, and a quenching probe used for the nucleic acid amplification reaction were the same as those in Example 5. HPβCD was prepared such that a final concentration of HPβCD in a nucleic acid amplification reaction solution becomes 2.5%. Furthermore, SDS was added thereto such that the SDS concentrations become 0%, 0.05%, 0.1%, 0.2%, 0.3%, 0.4%, 0.5%, and 1.0% to be set as Test Examples 1 to 8 respectively. In addition, HPβCD was prepared such that a final concentration of HPβCD in a nucleic acid amplification reaction solution becomes 5.0%. Furthermore, SDS was added thereto such that the SDS concentrations become 0%, 0.05%, 0.1%, 0.2%, 0.3%, 0.4%, 0.5%, and 1.0% to be set as Test Examples 9 to 16 respectively. In addition, nucleic acid amplification reaction solutions prepared such that the HPβCD concentration becomes 0% and the SDS concentrations become 0%, 0.01%, and 0.1% to be set as Comparative Examples 1 to 3.

Row | Compound | activity of the RNase A ([1]; SDS 0.1% (Test Example 1)) | activity of the RNase A ([1]; SDS 1.0% (Test Example 2)) | SDS concentration with which the activity of the RNase A was suppressed ([2]; bovine plasma diluted 10 times (Test Examples 5 and 6)) [%] | SDS concentration with which the activity of the RNase A was suppressed ([2]; bovine plasma diluted 20 times (Test Examples 9 to 12)) [%] | Tt value ([3]; SDS 0.01% at heat treatment, 3 minutes at 90° C. (Test Example 3)) [min] | Tt value ([3]; SDS 0.1% at heat treatment, 3 minutes at 90° C. (Test Example 4)) [min] | amplification of the nucleic acid ([3]; SDS 1% at heat treatment, 3 minutes at 90° C. (Test Example 5)) | SDS concentration at which amplification of the nucleic acid was confirmed ([4]; HPβCD not added) [%] | amplification of the nucleic acid ([4]; HPβCD not added, SDS concentration 0.1%) | HPβCD concentration relative to the SDS concentration to suppress the inhibition of the LAMP reaction due to the SDS ([4]; in the nucleic acid amplification reaction solution) [times]
1 | CCCCCCCCCCCCOS(=O)(=O)[O-].[Na+] [SDS, sodium dodecyl sulfate] | suppressed | suppressed | ≥ 0.4 | ≥ 0.2 | 17.5 | 14.2 | no amplification of the nucleic acid | ≤ 0.01 | No amplification of the nucleic acid was confirmed | –
2 | hydroxyprophyl-β-cyclodextrin [HPβCD] | – | – | – | – | – | – | – | – | – | ≥ 8
